Read-outs that look alike come from different tables or passages of the source.
Experiments:
Assay type in all cases: cell-based
[1] = tested on: KM-12 colorectal cancer cells; test: antitumor activity, sulforhodamine B cell growth assay, KM-12; settings: KM-12, drug exposure 48 hours, read-out: GI50 value: 50% growth inhibitory concentration
Description: (§1) The THIQ compound containing a macrocyclic structure of the present invention was administered to various cancer cell lines, and the antitumor activity (Go value) was observed. Specifically, verification was performed according to the literature (Yamori, T.; Matsunaga, A.; Sato, S.; Yamazaki, K.; Komi, A.; Ishizu, K. et al. Cancer Res. 1999, 59, 4042) by the following procedure.
(§2) Cells were plated at an appropriate density in a 96-well plate in RPMI 1640 together with 5% fetal bovine serum, and adhered overnight. The cells were exposed to a drug for 48 hours. Then, according to the sulforhodamine B assay described by Skehan et al (Skehan P., Storeng R., Scudiero D., Monks A., McMahon J., Vistica D., Warren J. T., Bokesch H., Kenney S., Boyd M. R. J Natl. Cancer Inst, 1990, 82, 1107-1112), the cell growth rate was measured. The absorbance of the control well (C) and the test well (T) was measured at 525 nm. In addition, the time at which the drug was added was set as time 0, and the absorbance for the test well (T0) was measured. Using these measured values, the cell growth inhibitory effect (% growth=PG) was calculated by the following formula at each concentration of the drug.
(§3) (T<T0): PG=100×[(T−T0)/T]
(§4) The PG values determined above for each cell line were plotted against the concentration (logarithm) on a semi-logarithmic graph, and summarized for each visceral cancer. Concentrations at which the dose-response curve of each cell line crossed the horizontal line of PG=50%, 0%, or −50% were calculated. These concentrations were defined as Log GI50, Log TGI, and Log LC50. Actually, using two data points of the drug concentration before and after crossing each horizontal line, the drug concentration (logarithmic value) at the intersection of the straight line connecting the two points and the horizontal line for each PG was calculated.

[2] = tested on: SNB-75 central nervous system cancer cells; test: antitumor activity, sulforhodamine B cell growth assay, SNB-75; settings: SNB-75, drug exposure 48 hours, read-out: GI50 value: 50% growth inhibitory concentration
Description: as §1, §2, §3, §4

A549 lung cancer cells = test: antitumor activity, sulforhodamine B cell growth assay, A549; settings: A549, drug exposure 48 hours, read-out: GI50 value: 50% growth inhibitory concentration
Description: as §1, §2, §3, §4

[3] = tested on: SF-268 central nervous system cancer cells; test: antitumor activity, sulforhodamine B cell growth assay, SF-268; settings: SF-268, drug exposure 48 hours, read-out: GI50 value: 50% growth inhibitory concentration
Description: as §1, §2, §3, §4

DMS273 lung cancer cells = test: antitumor activity, sulforhodamine B cell growth assay, DMS273; settings: DMS273, drug exposure 48 hours, read-out: GI50 value: 50% growth inhibitory concentration
Description: as §1, §2, §3, §4

[4] = tested on: MKN74 gastric cancer cells; test: antitumor activity, sulforhodamine B cell growth assay, MKN74; settings: MKN74, drug exposure 48 hours, read-out: GI50 value: 50% growth inhibitory concentration
Description: as §1, §2, §3, §4

[5] = tested on: HBC-5 breast cancer cells; test: antitumor activity, sulforhodamine B cell growth assay, HBC-5; settings: HBC-5, drug exposure 48 hours, read-out: GI50 value: 50% growth inhibitory concentration
Description: as §1, §2, §3, §4

[6] = tested on: MCF-7 breast cancer cells; test: antitumor activity, sulforhodamine B cell growth assay, MCF-7; settings: MCF-7, drug exposure 48 hours, read-out: GI50 value: 50% growth inhibitory concentration
Description: as §1, §2, §3, §4

[7] = tested on: DU-145 prostate cancer cells; test: antitumor activity, sulforhodamine B cell growth assay, DU-145; settings: DU-145, drug exposure 48 hours, read-out: GI50 value: 50% growth inhibitory concentration
Description: as §1, §2, §3, §4

LOX-IMVI melanoma cells = test: antitumor activity, sulforhodamine B cell growth assay, LOX-IMVI; settings: LOX-IMVI, drug exposure 48 hours, read-out: GI50 value: 50% growth inhibitory concentration
Description: as §1, §2, §3, §4

[8] = tested on: BSY-1 breast cancer cells; test: antitumor activity, sulforhodamine B cell growth assay, BSY-1; settings: BSY-1, drug exposure 48 hours; read-out: GI50 value: 50% growth inhibitory concentration
Description: as §1, §2, §3, §4

[9] = tested on: NCI-H23 lung cancer cells; test: antitumor activity, sulforhodamine B cell growth assay, NCI-H23; settings: NCI-H23, drug exposure 48 hours, read-out: GI50 value: 50% growth inhibitory concentration
Description: as §1, §2, §3, §4

[10] = tested on: MKN1 gastric cancer cells; test: antitumor activity, sulforhodamine B cell growth assay, MKN1; settings: MKN1, drug exposure 48 hours, read-out: GI50 value: 50% growth inhibitory concentration
Description: as §1, §2, §3, §4

SK-OV-3 cancer cells = test: antitumor activity, sulforhodamine B cell growth assay, SK-OV-3; settings: SK-OV-3, drug exposure 48 hours, read-out: GI50 value: 50% growth inhibitory concentration
Description: as §1, §2, §3, §4

OVCAR-8 cancer cells = test: antitumor activity, sulforhodamine B cell growth assay, OVCAR-8; settings: OVCAR-8, drug exposure 48 hours, read-out: GI50 value: 50% growth inhibitory concentration
Description: as §1, §2, §3, §4

OVCAR-3 cancer cells = test: antitumor activity, sulforhodamine B cell growth assay, OVCAR-3; settings: OVCAR-3, drug exposure 48 hours, read-out: GI50 value: 50% growth inhibitory concentration
Description: as §1, §2, §3, §4

[11] = tested on: NCI-H460 lung cancer cells; test: antitumor activity, sulforhodamine B cell growth assay, NCI-H460; settings: NCI-H460, drug exposure 48 hours, read-out: GI50 value: 50% growth inhibitory concentration
Description: as §1, §2, §3, §4

[12] = tested on: U251 central nervous system cancer cells; test: antitumor activity, sulforhodamine B cell growth assay, U251; settings: U251, drug exposure 48 hours, read-out: GI50 value: 50% growth inhibitory concentration
Description: as §1, §2, §3, §4

[13] = tested on: HCC2998 colorectal cancer cells; test: antitumor activity, sulforhodamine B cell growth assay, HCC2998; settings: HCC2998, drug exposure 48 hours, read-out: GI50 value: 50% growth inhibitory concentration
Description: as §1, §2, §3, §4

[14] = tested on: SF-539 central nervous system cancer cells; test: antitumor activity, sulforhodamine B cell growth assay, SF-539; settings: SF-539, drug exposure 48 hours, read-out: GI50 value: 50% growth inhibitory concentration
Description: as §1, §2, §3, §4

[15] = tested on: PC-3 prostate cancer cells; test: antitumor activity, sulforhodamine B cell growth assay, PC-3; settings: PC-3, drug exposure 48 hours; read-out: GI50 value: 50% growth inhibitory concentration
Description: as §1, §2, §3, §4

`COC1=C(C)C(=O)C2=C(C1=O)[C@H](CNC(=O)[C@H](C)N)N1C(C2)[C@H]2c3c(cc(C)c(OC)c3O)C[C@@H]([C@@H]1C#N)N2C` (some centres unmarked) [Cyanosafracin B, reference compound] gave a GI50 [1] of 530 nM, a GI50 [2] of 150 nM and a GI50 (A549 lung cancer cells) of 1600 nM. It also gave a GI50 [3] of 370 nM, a GI50 (DMS273 lung cancer cells) of 270 nM and a GI50 [4] of 310 nM. It also gave a GI50 ([5]; listed as drawing 116) of 82 nM, a GI50 ([5]; listed as drawing 120) of 62 nM and a GI50 [6] of 52 nM. The GI50 [7] was 490 nM, the GI50 (LOX-IMVI melanoma cells; listed as drawing 116) was 81 nM and the GI50 (LOX-IMVI melanoma cells; listed as drawing 120) was 61 nM. The GI50 [8] was 34 nM, the GI50 [9] was 290 nM and the GI50 [10] was 52 nM. It also gave a GI50 (SK-OV-3 cancer cells) of 540 nM, a GI50 (OVCAR-8 cancer cells) of 290 nM and a GI50 (OVCAR-3 cancer cells) of 130 nM. It also gave a GI50 [11] of 400 nM, a GI50 [12] of 370 nM and a GI50 [13] of 350 nM. The GI50 [14] was 180 nM and the GI50 [15] was 290 nM.
For `COc1c(C)cc2c(c1O)[C@@H]1[C@@H]3Cc4c5c(C)c6c(c4C(CNC(=O)[C@H](C)N(C)CC#CCO5)N3[C@@H](C#N)[C@H](C2)N1C)OCO6` [Compound 29], the GI50 ([1]; Homo sapiens, KM12) was 3.1 nM, the GI50 ([2]; Homo sapiens) was 1.3 nM and the GI50 (A549 lung cancer cells; Homo sapiens) was 3.4 nM. It also gave a GI50 ([3]; Homo sapiens) of 2.8 nM, a GI50 (DMS273 lung cancer cells; Homo sapiens, DMS-273) of 1.1 nM and a GI50 ([4]; Homo sapiens, MKN-74) of 3.7 nM. The GI50 ([5]; HBC5) was 1.8 nM, the GI50 ([6]; Homo sapiens, MCF7) was 0.67 nM and the GI50 ([7]; Homo sapiens) was 3.5 nM. The GI50 (LOX-IMVI melanoma cells; Homo sapiens) was 0.59 nM, the GI50 [8] was 0.6 nM and the GI50 ([9]; Homo sapiens) was 2.6 nM. It also gave a GI50 ([10]; Homo sapiens, MKN-1) of 2.3 nM, a GI50 (SK-OV-3 cancer cells; Homo sapiens) of 5.7 nM and a GI50 (OVCAR-8 cancer cells; Homo sapiens) of 2.6 nM. For the same compound, the GI50 (OVCAR-3 cancer cells; Homo sapiens) was 2.6 nM, the GI50 ([11]; Homo sapiens) was 2.8 nM and the GI50 ([12]; Homo sapiens, U-251) was 1.4 nM. For the same compound, the GI50 ([13]; Homo sapiens, HCC 2998) was 2.8 nM, the GI50 ([14]; Homo sapiens) was 1.3 nM and the GI50 [15] was 3 nM.

From patent publication US20240197726A1, “NOVEL TETRAHYDROISOQUINOLINE ALKALOID COMPOUND CONTAINING MACROCYCLE” (THE UNIVERSITY OF TOKYO, priority 2021, published 2024)
